Several values for one entry are separate records, joined by “and”; a condition that tells them apart may be missing. Equal entries are not always repeated.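 Each compound was tested at five concentrations against cells in 96-well plates for 48 hours. At the GI50, growth is halved. TGI is the concentration that stops growth completely.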
Key:
Assay in all cases: NCI tumour cell line growth inhibition, 48 h
[1] = tested on: LOX IMVI melanoma
[2] = tested on: SK-MEL-2 melanoma
[3] = tested on: MDA-MB-435
[4] = tested on: NCI-H460 lung
[5] = tested on: HCT-116 colon
[6] = tested on: MCF7 breast
[7] = tested on: OVCAR-8 ovarian
[8] = tested on: BT-549 breast
[9] = tested on: DU-145 prostate
[10] = tested on: IGROV1 ovarian

SMILES	TGI [1]	TGI [2]	TGI [3]	TGI [4]	TGI [5]	TGI [6]	TGI [7]	TGI [8]	TGI [9]	TGI [10]	GI50 [2]	GI50 [3]	GI50 [4]	GI50 [5]	GI50 [8]	GI50 [10]	GI50 [1]	GI50 [6]	GI50 [7]	GI50 [9]
S=C(NCc1ccccc1)N/N=C/c1ccccn1	21.5 µM	> 100 µM	> 100 µM	> 75.6 µM	15.4 µM	> 100 µM	> 76.2 µM	> 100 µM	> 100 µM	> 62.8 µM										
O=C1c2ccccc2-c2[nH]c3cn[nH]c(=O)c3c21	> 100 µM	> 100 µM	> 100 µM	> 100 µM	> 100 µM	> 100 µM	> 100 µM	> 100 µM	> 100 µM	> 100 µM										
Cc1nc2ccc(Cl)cc2c2c1CCN2c1ccccc1	22.3 µM		21.3 µM	23.9 µM	17.6 µM	36 µM	29.1 µM	31.2 µM	63.8 µM	> 100 µM										
Cc1ccc(S(=O)(=O)N(CC(O)COc2ccccc2)c2ccc(F)cc2F)cc1 (stereo not given)	27.3 µM	30.4 µM	31.4 µM	33.7 µM			31.3 µM		46.9 µM											
O=C1c2ccccc2C(=O)N1c1nc(-c2ccc(Cl)cc2)cc(N2N=C(c3ccc(Br)cc3)CC2c2ccccc2)n1 (stereo not given)	3.78 µM	> 42.2 µM	2.62 µM	> 41.9 µM	> 20.5 µM	4.57 µM	> 24.1 µM	16.8 µM	> 23.3 µM	> 32.6 µM										
O=C(CC1Sc2ccccc2NC1=O)Nc1ccc(Cl)cc1 (stereo not given)	> 100 µM	> 100 µM		> 100 µM	> 100 µM		> 100 µM			> 100 µM										
O=C(c1ccco1)N(C(=S)OC12CC3CC(CC(C3)C1)C2)c1ccccc1	86.2 µM	40.9 µM	90.3 µM	> 100 µM	48.7 µM	85.3 µM	> 100 µM	> 100 µM	> 100 µM											
N#Cc1nc(C#N)n(C(=O)c2ccccc2)c1NC(=O)c1ccccc1	> 100 µM	> 100 µM	> 100 µM	> 100 µM	> 100 µM	> 100 µM	> 100 µM	> 100 µM	> 100 µM	> 100 µM										
Nc1nc(Cl)cc(NCC2(O)CCCC2)n1	> 100 µM	> 100 µM	> 100 µM	> 100 µM	> 100 µM	> 100 µM	> 100 µM	> 100 µM	> 100 µM	> 100 µM										
O=C1CC(n2cccc2)c2c(Br)sc(Br)c21 (stereo not given)	21.7 µM	29.1 µM	29.3 µM	36.6 µM	28.7 µM	26.9 µM	37.8 µM	34.3 µM	31.8 µM	32.7 µM										
O=[N+]([O-])c1ccc(C(Nc2ccccc2)c2ccc3cccnc3c2O)cc1 (stereo not given)	61 µM	> 100 µM	> 78 µM	> 60.6 µM	> 75.3 µM	> 75.6 µM	52.3 µM	> 70.3 µM	> 100 µM	> 100 µM										
COC(=O)c1c(-c2ccc(Cl)cc2)cc2c3ccccc3n(C)c2c1C(=O)OC	> 100 µM	> 100 µM	> 100 µM	> 100 µM	> 100 µM	> 100 µM	> 100 µM	> 100 µM	> 100 µM	> 100 µM										
Cc1cc2cc3c(cc2c(-c2ccc(N)cc2)n1)OCO3		> 100 µM	> 100 µM	> 100 µM	> 100 µM	53.6 µM	> 100 µM	> 100 µM	> 100 µM	59.5 µM										
CSc1nc(NC(C)C)c2c(n1)Sc1nc3ccccc3n1C2O (stereo not given)	> 100 µM	52 µM	5.02 µM		> 100 µM	> 100 µM	> 100 µM	> 100 µM		> 100 µM										
CCOC(=O)C(=O)C(=O)NN(C)C1=NCCN1	> 100 µM	> 100 µM	> 100 µM	> 100 µM	> 100 µM	> 100 µM	> 100 µM	> 100 µM	> 100 µM	> 100 µM										
COC(=O)C1=C(O)C(C(=O)OC)[C@]2(O)[C@H](C(=O)OC)[C@H]1C[C@@H](c1ccc([N+](=O)[O-])cc1)[C@H]2C(=O)OC (stereo not given in full)	32 µM	46.6 µM	> 100 µM	> 100 µM	32.3 µM		41.4 µM	39.7 µM	> 100 µM	30.5 µM										
Cc1nc(-c2cc3cc(Cl)ccc3oc2=O)cc2c1c(=O)oc1ccc(Cl)cc12	> 100 µM	> 100 µM	> 100 µM	> 100 µM	> 100 µM	> 100 µM	> 100 µM	> 100 µM	> 100 µM	> 100 µM										
O=C1C=CC(=O)c2c(O)c(N3CCN(CCOCCO)CC3)c(Cl)c(O)c21		4.51 µM and 1.11 µM	0.907 µM and 0.486 µM		801 nM [middle of 4 runs]			2.11 µM and 1.49 µM and 3.91 µM	3.31 µM [middle of 4 runs]	3.2 µM [middle of 4 runs]	2.3 µM	0.197 µM	1.57 µM	333 nM [middle of 4 runs]	0.722 µM and 0.422 µM and 2.27 µM	1.64 µM [middle of 4 runs]				
COC(=O)CCCC(=O)NC1=C(NCc2ccccc2)C(=O)c2ccccc2C1=O	> 100 µM	> 100 µM	> 100 µM	> 100 µM	> 100 µM	> 100 µM	> 100 µM	93.8 µM	> 100 µM	> 100 µM										
CS(=O)(=O)NC12CCC(c3ccccc31)c1ccccc12	> 100 µM	> 100 µM	> 100 µM	> 100 µM	> 100 µM	> 100 µM		> 100 µM	> 100 µM	> 100 µM										
CCC(CC(C)C)Nc1ccc(NC(CC)CC(C)C)cc1 (stereo not given)	35.1 µM	27.4 µM	40 µM	40.9 µM	28.3 µM	28.4 µM	34.2 µM		82.1 µM	78.7 µM	12.9 µM	18.2 µM	17.5 µM	14.1 µM		27.1 µM	14.9 µM	15.2 µM	18.2 µM	26.5 µM
